In patent US20020035157A1, “Pharmaceutical compositions” (priority 1999, published 2002):
Like-named read-outs stand apart in the source and are kept apart here.

Experiments:
[1] = system: patients with osteoarthritis pain; assay: Randomised, double blind, placebo controlled study in painful osteoarthritis: pain scores, analgesic consumption, desire to continue (Example 2); type: in vivo, human; conditions: for Reduction in pain score (VAS): after 42 days versus baseline pain score 4.2 (mean of days 1-4); for Reduction in pain score (VAS) compared to placebo: after 42 days, decrease beyond that given by cream vehicle alone; for percentage of patients who wished to continue with treatment: after six weeks; for Reduction in daily tablet consumption / Tablets per day after treatment: analgesic use; for Reduction in daily tablet consumption: from initial mean of 4 tablets daily; for Tablets per day after treatment: at beginning of treatment 4 tablets per day; for Mean Pain Score after 42 days (VAS): cream four times daily for six weeks to one painful joint, 0-10 VAS, baseline pain score 4.2; for Patients not wishing to continue / Patients wishing to continue: desire to continue with current treatment after six weeks
healthy individuals = conditions: 0.1 ml cream on 1 inch^2 of dorsum of non-dominant hand, single application, rated after 6 hours, 0-10 VAS, 40 volunteers
[2] = system: patients with osteoarthritis pain
patients = conditions: cited from earlier work

In the case of `COc1cc(CNC(=O)CCCC/C=C/C(C)C)ccc1O` [Capsaicin, N-(4-hydroxy-3-methoxybenzyl)-8-methylnon-trans-6-enamide], the “Reduction in pain score (VAS)” value [1] is reported as 0.5 VAS, the “Reduction in pain score (VAS) compared to placebo” value [1] is reported as 0.28 VAS and the “percentage of patients who wished to continue with treatment” value [1] is reported as 24.4%. For the same compound, the Reduction in daily tablet consumption [1] was 0.28 tablets, the “Reduction in daily tablet consumption” value ([1]; listed as capsaicin) was 0.28 tablets and the “Tablets per day after treatment” value [1] was 3.72 tablets per day. The “Mean Pain Score after 42 days (VAS)” value [1] was 3.70 VAS, the “Patients not wishing to continue” value [1] was 29 patients and the “Patients wishing to continue” value [1] was 11 patients. The “VAS: median (range), burning discomfort” value (healthy individuals) was 3 VAS, the “VAS: median (range), burning discomfort” value (healthy individuals; listed as C) was 3 (0-7) VAS and the “Application discomfort - Baseline scores versus treatment, VAS” value ([2]; regression estimate of baseline discomfort relative to the other groups, 10 cm VAS) was 2.1 VAS. For the same compound, the “patients who suffered burning after application” value (patients; 0.025% capsaicin, Watson and colleagues, Clinical Therapeutics 1993) was 9 of 33 and the “patients who suffered burning discomfort after application” value (patients; 0.075% capsaicin, The Capsaicin Study Group) was 87 of 138.

In the case of `O=[N+]([O-])OCC(CO[N+](=O)[O-])O[N+](=O)[O-]` [GTN, Glyceryl trinitrate], the “Reduction in pain score (VAS)” value [1] is reported as 0.59 VAS, the “Reduction in pain score (VAS) compared to placebo” value [1] is reported as 0.37 VAS and the “percentage of patients who wished to continue with treatment” value [1] is reported as 27.5%. The “Tablets per day after treatment” value [1] was 3.52 tablets per day, the “Mean Pain Score after 42 days (VAS)” value [1] was 3.61 VAS and the “Patients not wishing to continue” value [1] was 34 patients. The “Patients wishing to continue” value [1] was 11 patients, the “VAS: median (range), burning discomfort” value (healthy individuals) was 0 VAS and the “VAS: median (range), burning discomfort” value (healthy individuals; listed as D) was 0 (0-2) VAS. The “initial application discomfort” value ([2]; equal effect to placebo) was “marginal initial discomfort” and the “Application discomfort - changes resulting from baseline score, Coefficient” value ([2]; human, in vivo) was 0.33.
